Counter-ions that a name gives are not always drawn. Like-named read-outs stand apart in the source and are kept apart here.
Tests used:
Test in all cases: MIC, standard broth dilution method in microtitre
Format in all cases: cell-based
[1] = tested on: erythromycin resistant strains of Streptococcus pneumoniae
Method: (§1) Using a standard broth dilution method in microtitre, compounds were tested for antibacterial activity. The compounds in the above examples gave minimum inhibitory concentrations (MICs) less than 1 microgram per millilitre against erythromycin-sensitive and erythromycin-resistant strains of Streptococcus pneumoniae and Streptococcus pyogenes.

[2] = tested on: erythromycin resistant strains of Streptococcus pyogenes
Method: as §1

[3] = tested on: S. aureus Smith ATCC 13709; settings: Staphylococcus aureus, ATCC13709
Method: as §1
(§2) In addition, the MIC (μg/mL) of test compounds against various organisms was determined including:
(§3) S. aureus Smith ATCC 13709, S. pneumoniae SP030, S. pyogenes 3565, E. faecalis ATCC 29212, H. influenzae ATCC 49247, M. catarrhalis ATCC 23246.

[4] = tested on: S. pyogenes 3565; settings: Streptococcus pyogenes
Method: as §1, §2, §3

[5] = tested on: E. faecalis ATCC 29212; settings: Enterococcus faecalis, ATCC29212
Method: as §1, §2, §3

[6] = tested on: H. influenzae ATCC 49247; settings: Haemophilus influenzae, ATCC49247
Method: as §1, §2, §3

[7] = tested on: S. pneumoniae SP030; settings: Streptococcus pneumoniae
Method: as §1, §2, §3

[8] = tested on: M. catarrhalis ATCC 23246; settings: Moraxella catarrhalis, ATCC23246
Method: as §1, §2, §3

[9] = H. influenzae ATCC 49247, broth dilution in microtitre, read-out: MIC

Structure (SMILES): CC[C@H]1OC(=O)[C@H](C)[C@@H](O[C@H]2C[C@@](C)(OC)[C@@H](OC(=O)CCOCCNc3cc4c(=O)c(C(=O)O)cn(C5CC5)c4cc3Cl)[C@H](C)O2)[C@@H](C)[C@@H](O[C@@H]2O[C@H](C)C[C@H](N(C)C)[C@H]2O)[C@](C)(O)C[C@@H](C)CN(C)[C@H](C)[C@@H](O)[C@]1(C)O [Example 18, 4″-O-{3-[2-(3-Carboxy-7-chloro-1-cyclopropyl-4-oxo-1,4-dihydro-4-quinolinylamino)ethoxy]propionyl}-azithromycin]
- MIC [1]: ≤ 0.25 µg/mL
- MIC [2]: ≤ 0.25 µg/mL
- MIC [3]: ≤ 1 µg/mL
- MIC [4]: ≤ 1 µg/mL
- MIC [5]: ≤ 1 µg/mL
- MIC [6, 9]: ≤ 2 µg/mL
- MIC [7]: ≤ 1 µg/mL
- MIC [8]: ≤ 2 µg/mL

Structure (SMILES): CC[C@H]1OC(=O)[C@H](C)[C@@H](O[C@H]2C[C@@](C)(OC)[C@@H](OC(=O)CCOCCOc3ccc4c(c3)c(=O)c(C(=O)O)cn4C3CC3)[C@H](C)O2)[C@H](C)[C@@H](O[C@@H]2O[C@H](C)C[C@H](N(C)C)[C@@H]2O)[C@](C)(O)C[C@@H](C)CN(C)[C@H](C)[C@@H](O)[C@]1(C)O [Example 29, 4″-O-{3-[2-(3-Carboxy-1-cyclopropyl-4-oxo-1,4-dihydro-quinolin-6-yloxy)-ethoxy]-propionyl}-azithromycin]
- MIC [1]: ≤ 0.25 µg/mL
- MIC [2]: ≤ 0.25 µg/mL
- MIC [3]: ≤ 1 µg/mL
- MIC [4]: ≤ 1 µg/mL
- MIC [5]: ≤ 1 µg/mL
- MIC [6, 9]: ≤ 2 µg/mL
- MIC [7]: ≤ 1 µg/mL
- MIC [8]: ≤ 2 µg/mL

Structure (SMILES): CC[C@@H]1OC(=O)[C@H](C)[C@H](O[C@@H]2C[C@](C)(OC)[C@H](OC(=O)CCNCCOc3ccc4c(=O)c(C(=O)O)cn(CC)c4c3)[C@H](C)O2)[C@@H](C)[C@H](O[C@@H]2O[C@H](C)C[C@H](N(C)C)[C@@H]2O)[C@](C)(OC)C[C@H](C)C(=O)[C@H](C)[C@@H](O)[C@]1(C)O [Example 17, 4″-O-{3-[2-(3-Carboxy-1-ethyl-4-oxo-1,4-dihydro-7-quinolinyloxy)ethylamino]propionyl}-6-O-methyl-erythromycin A]
- MIC [1]: ≤ 0.25 µg/mL
- MIC [2]: ≤ 0.25 µg/mL
- MIC [3]: ≤ 1 µg/mL
- MIC [4]: ≤ 1 µg/mL
- MIC [5]: ≤ 1 µg/mL
- MIC [6, 9]: ≤ 2 µg/mL
- MIC [7]: ≤ 1 µg/mL
- MIC [8]: ≤ 2 µg/mL

Structure (SMILES): CC[C@H]1OC(=O)[C@H](C)[C@@H](O[C@H]2C[C@@](C)(OC)[C@@H](OC(=O)CCOCCOc3cc4c(=O)c(C(=O)O)cn(C5CC5)c4cc3Cl)[C@H](C)O2)[C@H](C)[C@@H](O[C@@H]2O[C@H](C)C[C@H](N(C)C)[C@H]2O)[C@](C)(O)C[C@@H](C)CN(C)[C@H](C)[C@@H](O)[C@]1(C)O [Example 27, 4″-O-{3-[2-(3-Carboxy-7-chloro-1-cyclopropyl-4-oxo-1,4-dihydro-quinolin-6-yloxy)ethoxy]-propionyl}-azithromycin]
- MIC [1]: ≤ 0.25 µg/mL
- MIC [2]: ≤ 0.25 µg/mL
- MIC [3]: ≤ 1 µg/mL
- MIC [4]: ≤ 1 µg/mL
- MIC [5]: ≤ 1 µg/mL
- MIC [6, 9]: ≤ 2 µg/mL
- MIC [7]: ≤ 1 µg/mL
- MIC [8]: ≤ 2 µg/mL

Structure (SMILES): CC[C@@H]1OC(=O)[C@H](C)[C@H](O[C@@H]2C[C@](C)(OC)[C@H](OC(=O)CCNCCOc3cc4c5c(c3)c(=O)c(C(=O)O)cn5CCC4)[C@H](C)O2)[C@@H](C)[C@H](O[C@@H]2O[C@H](C)C[C@H](N(C)C)[C@@H]2O)[C@](C)(OC)C[C@H](C)C(=O)[C@H](C)[C@@H](O)[C@]1(C)O [Example 13, 4′-O-{3-[2-(6-Carboxy-7-oxo-2,3-dihydro-1H,7H-pyrido[3,2,1-ij]quinolin-9-yloxy)ethylamino]propionyl}-6-O-methyl-erythromycin A bis trifluoroacetate salt]
- MIC [1]: ≤ 0.25 µg/mL
- MIC [2]: ≤ 0.25 µg/mL
- MIC [3]: ≤ 1 µg/mL
- MIC [4]: ≤ 1 µg/mL
- MIC [5]: ≤ 1 µg/mL
- MIC [6]: ≤ 2 µg/mL
- MIC [7]: ≤ 1 µg/mL
- MIC [8]: ≤ 2 µg/mL

Structure (SMILES): CC[C@H]1OC(=O)[C@H](C)[C@@H](O[C@H]2C[C@@](C)(OC)[C@@H](OC(=O)CCOCCNc3ccc4c(c3)c(=O)c(C(=O)O)cn4C3CC3)[C@H](C)O2)[C@@H](C)[C@@H](O[C@@H]2O[C@H](C)C[C@H](N(C)C)[C@H]2O)[C@](C)(O)C[C@@H](C)CN(C)[C@H](C)[C@@H](O)[C@]1(C)O [Example 19, 4″-O-{3-[2-(3-Carboxy-1-cyclopropyl-4-oxo-1,4-dihydro-6-quinolinylamino)ethoxy]propionyl}-azithromycin]
- MIC [1]: ≤ 0.25 µg/mL
- MIC [2]: ≤ 0.25 µg/mL
- MIC [3]: ≤ 1 µg/mL
- MIC [4]: ≤ 1 µg/mL
- MIC [5]: ≤ 1 µg/mL
- MIC [6, 9]: ≤ 2 µg/mL
- MIC [7]: ≤ 1 µg/mL
- MIC [8]: ≤ 2 µg/mL

Structure (SMILES): CC[C@@H]1OC(=O)[C@H](C)[C@H](O[C@@H]2O[C@H](C)[C@H](OC(=O)CCNCCSc3ccc4c(c3)c(=O)c(C(=O)O)cn4CC)[C@@](C)(OC)O2)[C@@H](C)[C@H](O[C@H]2O[C@@H](C)C[C@@H](N(C)C)[C@H]2O)[C@](C)(OC)C[C@H](C)C(=O)[C@@H](C)[C@@H]2NC(=O)O[C@@]12C [Example 9, 4″-O-{3-[2-(3-Carboxy-1-ethyl-4-oxo-1,4-dihydro-quinolinylsulfanyl)ethylamino]propionyl}-6-O-methyl-11-desoxy-11-(R)amino-erythromycin A11,12-carbamate bis trifluoroacetate salt]
- MIC [1]: ≤ 0.25 µg/mL
- MIC [2]: ≤ 0.25 µg/mL
- MIC [3]: ≤ 1 µg/mL
- MIC [4]: ≤ 1 µg/mL
- MIC [5]: ≤ 1 µg/mL
- MIC [6]: ≤ 2 µg/mL
- MIC [7]: ≤ 1 µg/mL
- MIC [8]: ≤ 2 µg/mL

Structure (SMILES): CC[C@H]1OC(=O)[C@H](C)[C@@H](O[C@H]2C[C@@](C)(OC)[C@@H](OC(=O)CCOCCNc3cc4c(=O)c(C(=O)O)cn(C5CC5)c4cc3Cl)[C@H](C)O2)[C@H](C)[C@@H](O[C@@H]2O[C@H](C)C[C@H](N(C)C)[C@H]2O)[C@](C)(O)C[C@@H](C)CN(C)[C@H](C)[C@@H](OC)[C@]1(C)O [Example 23, 4″-O-{3-[2-(3-Carboxy-7-chloro-1-cyclopropyl-4-oxo-1,4-dihydro-6-quinolinylamino)ethoxy]propionyl}-11-O-methyl-azithromycin]
- MIC [1]: ≤ 0.25 µg/mL
- MIC [2]: ≤ 0.25 µg/mL
- MIC [3]: ≤ 1 µg/mL
- MIC [4]: ≤ 1 µg/mL
- MIC [5]: ≤ 1 µg/mL
- MIC [6, 9]: ≤ 2 µg/mL
- MIC [7]: ≤ 1 µg/mL
- MIC [8]: ≤ 2 µg/mL
